Measured values published in ChEMBL document CHEMBL1126591, “Dibenz[b,e]oxepin derivatives: novel antiallergic agents possessing thromboxane A2 and histamine H1 dual antagonizing activity. 1” (J Med Chem, 1993).
Activity calls are given as the source filed them. The rule behind the calls is not given here.

Columns and labels:
[1] = Affinity for TXA2 / PGH-2 receptors in guinea pig platelets, by inhibition of [3H]U-46619 binding
[2] = target: Histamine H1 receptor (Cavia porcellus, UniProt P31389); assay: Inhibition of the specific binding of [3H]pyrilamine to guinea pig cerebellum histamine H1 receptor; format: tissue-based
Sequence of Histamine H1 receptor (P31389 whole entry): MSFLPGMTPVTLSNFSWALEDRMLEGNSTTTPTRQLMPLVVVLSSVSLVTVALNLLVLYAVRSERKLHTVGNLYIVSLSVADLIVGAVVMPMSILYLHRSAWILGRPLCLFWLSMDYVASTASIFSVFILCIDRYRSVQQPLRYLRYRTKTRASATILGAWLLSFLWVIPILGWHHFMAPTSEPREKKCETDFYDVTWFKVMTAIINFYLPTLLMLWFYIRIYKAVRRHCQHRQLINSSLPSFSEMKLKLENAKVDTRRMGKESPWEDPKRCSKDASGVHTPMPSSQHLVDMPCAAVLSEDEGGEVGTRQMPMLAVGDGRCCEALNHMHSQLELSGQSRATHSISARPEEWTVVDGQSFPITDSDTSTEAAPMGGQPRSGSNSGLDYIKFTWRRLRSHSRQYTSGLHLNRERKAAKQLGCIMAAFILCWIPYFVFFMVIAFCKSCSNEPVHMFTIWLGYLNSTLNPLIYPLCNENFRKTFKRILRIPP

[3] = target: Histamine H1 receptor (Cavia porcellus) (UniProt P31389); assay: Inhibitory effect on the specific binding of [3H]pyrilamine to guinea pig cerebellum histamine H1 receptor at 1 uM; format: tissue-based
Sequence of Histamine H1 receptor (Cavia porcellus) (P31389 whole entry): as above

[4] = tested on: Rattus norvegicus; assay: Compound concentration inhibiting 48 hr homologous passive cutaneous Anaphylaxis in rats peroral administration; No efficacy; format: functional, organism-based
[5] = Inhibition of prostaglandin I2 receptor binding at a concentration of 10 uM; Showed negligible activities
[6] = tested on: Rattus norvegicus; assay: Compound concentration inhibiting 48 hr homologous passive cutaneous Anaphylaxis in rats peroral administration; format: functional; conditions: po
[7] = target: T1, Muscarinic acetylcholine receptor M1 (Homo sapiens, UniProt P11229); assay: Inhibition of muscarinic-1 receptor binding at a concentration of 10 uM; Showed negligible activities
T1 sequence (P11229 whole entry): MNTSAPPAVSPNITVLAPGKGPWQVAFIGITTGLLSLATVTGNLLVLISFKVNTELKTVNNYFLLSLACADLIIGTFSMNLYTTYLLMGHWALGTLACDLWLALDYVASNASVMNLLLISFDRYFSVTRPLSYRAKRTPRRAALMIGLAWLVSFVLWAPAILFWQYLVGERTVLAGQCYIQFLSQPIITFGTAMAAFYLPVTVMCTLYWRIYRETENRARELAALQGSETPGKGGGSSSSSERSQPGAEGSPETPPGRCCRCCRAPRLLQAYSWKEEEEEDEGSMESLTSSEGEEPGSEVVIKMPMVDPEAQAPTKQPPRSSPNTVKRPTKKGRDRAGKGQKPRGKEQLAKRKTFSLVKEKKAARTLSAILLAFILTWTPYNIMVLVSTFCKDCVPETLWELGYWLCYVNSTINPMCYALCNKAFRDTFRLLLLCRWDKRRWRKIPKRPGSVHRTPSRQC

[8] = target: Platelet-activating factor receptor (Homo sapiens, UniProt P25105); assay: Inhibition of platelet-activating factor binding at a concentration of 10 uM; Showed negligible activities
Sequence of Platelet-activating factor receptor (P25105 whole entry): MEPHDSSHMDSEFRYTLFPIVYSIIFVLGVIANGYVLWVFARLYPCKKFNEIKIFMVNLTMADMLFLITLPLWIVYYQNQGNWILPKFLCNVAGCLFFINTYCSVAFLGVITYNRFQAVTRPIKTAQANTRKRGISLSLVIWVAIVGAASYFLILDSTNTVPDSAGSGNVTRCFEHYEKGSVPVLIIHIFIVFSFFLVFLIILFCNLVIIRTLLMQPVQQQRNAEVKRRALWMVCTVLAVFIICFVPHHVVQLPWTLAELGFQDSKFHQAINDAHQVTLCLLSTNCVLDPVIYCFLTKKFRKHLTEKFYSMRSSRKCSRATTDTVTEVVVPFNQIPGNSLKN

[9] = target: Histamine H2 receptor (Rattus norvegicus, UniProt P25102); assay: Inhibition of H2 histamine receptor binding at a concentration of 10 uM; Showed negligible activities
Sequence of Histamine H2 receptor (P25102 whole entry): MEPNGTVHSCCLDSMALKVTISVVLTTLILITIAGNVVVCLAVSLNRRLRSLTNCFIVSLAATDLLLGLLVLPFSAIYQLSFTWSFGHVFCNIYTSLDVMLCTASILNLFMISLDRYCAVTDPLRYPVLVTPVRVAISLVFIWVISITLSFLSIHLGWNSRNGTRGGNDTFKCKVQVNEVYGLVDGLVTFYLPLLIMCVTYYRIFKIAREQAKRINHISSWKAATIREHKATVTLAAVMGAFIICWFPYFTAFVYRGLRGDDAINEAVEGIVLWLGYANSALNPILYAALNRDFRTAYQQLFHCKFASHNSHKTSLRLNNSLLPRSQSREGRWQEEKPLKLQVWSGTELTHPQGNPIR

[10] = tested on: Alpha-2 adrenergic receptor (Rattus norvegicus); assay: Inhibition of alpha-2 adrenergic receptor binding at a concentration of 10 uM; Showed negligible activities
[11] = target: D(2) dopamine receptor (Rattus norvegicus, UniProt P61169); assay: Inhibition of dopamine receptor binding at a concentration of 10 uM; Showed negligible activities
Sequence of D(2) dopamine receptor (P61169 whole entry): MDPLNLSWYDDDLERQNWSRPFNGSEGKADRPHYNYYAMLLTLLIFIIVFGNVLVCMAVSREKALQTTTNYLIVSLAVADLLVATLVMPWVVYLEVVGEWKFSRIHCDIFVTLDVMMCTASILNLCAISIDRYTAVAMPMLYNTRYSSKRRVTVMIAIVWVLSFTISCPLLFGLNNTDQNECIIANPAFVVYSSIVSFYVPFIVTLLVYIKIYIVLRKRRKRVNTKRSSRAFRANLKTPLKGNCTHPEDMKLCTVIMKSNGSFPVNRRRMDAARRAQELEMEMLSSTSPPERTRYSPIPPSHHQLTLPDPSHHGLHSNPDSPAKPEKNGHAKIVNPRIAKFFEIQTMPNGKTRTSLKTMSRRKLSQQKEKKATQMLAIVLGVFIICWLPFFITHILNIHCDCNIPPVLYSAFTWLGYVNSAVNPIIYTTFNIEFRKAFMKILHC

[12] = target: 5-hydroxytryptamine receptor 5B (Rattus norvegicus, UniProt P35365); assay: Inhibition of serotonin receptor binding at a concentration of 10 uM; Showed negligible activities
Sequence of 5-hydroxytryptamine receptor 5B (P35365 whole entry): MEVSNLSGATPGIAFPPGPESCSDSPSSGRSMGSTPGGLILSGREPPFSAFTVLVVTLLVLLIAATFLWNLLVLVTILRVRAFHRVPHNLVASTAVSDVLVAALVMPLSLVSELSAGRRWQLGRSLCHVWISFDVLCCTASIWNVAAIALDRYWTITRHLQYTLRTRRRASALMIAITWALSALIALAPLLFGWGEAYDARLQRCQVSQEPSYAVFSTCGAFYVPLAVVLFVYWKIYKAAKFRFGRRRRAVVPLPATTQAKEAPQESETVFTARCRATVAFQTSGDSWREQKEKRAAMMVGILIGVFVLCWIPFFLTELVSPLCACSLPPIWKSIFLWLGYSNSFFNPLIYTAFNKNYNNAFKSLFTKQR

[13] = Lethal concentration in 50% rats peroral administration of compound; format: ADME, organism-based; conditions: rat, in vivo, po
[14] = target: T2, Prostaglandin E2 receptor EP3 subtype (Homo sapiens, UniProt P43115); assay: Inhibition of prostaglandin E2 receptor binding at a concentration of 10 uM; Showed negligible activities
T2 sequence (P43115 whole entry): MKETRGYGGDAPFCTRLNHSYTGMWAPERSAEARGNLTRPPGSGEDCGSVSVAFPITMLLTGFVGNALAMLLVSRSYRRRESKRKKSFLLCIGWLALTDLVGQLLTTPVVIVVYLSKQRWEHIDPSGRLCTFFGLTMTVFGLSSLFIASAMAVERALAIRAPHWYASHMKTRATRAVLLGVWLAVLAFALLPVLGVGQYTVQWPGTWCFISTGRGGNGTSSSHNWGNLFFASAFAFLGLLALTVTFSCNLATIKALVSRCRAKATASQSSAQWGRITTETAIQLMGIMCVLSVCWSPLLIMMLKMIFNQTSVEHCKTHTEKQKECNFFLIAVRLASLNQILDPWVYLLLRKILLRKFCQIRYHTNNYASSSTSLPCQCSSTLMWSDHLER

[15] = tested on: Alpha-1 adrenergic receptor (Rattus norvegicus); assay: Inhibition of alpha-1 adrenergic receptor binding at a concentration of 10 uM; Showed negligible activities
[16] = species: Cavia porcellus; assay: Inhibitory effect on the specific binding of [3H]U-46619 to guinea pig platelets TXA2/PGH2 receptors at 1 uM

Structure (SMILES)	Ki [1] [µM]	Ki [2] [µM]	further results
O=C(O)c1ccc2c(c1)C(SCCN1CCC(c3ccccc3)CC1)c1ccccc1CO2 (centres undefined)	0.99	0.02	–
O=C(O)COc1ccc(CCNS(=O)(=O)c2ccccc2)cc1 [SULOTROBAN]	–	–	inhibition [3]: 0%; ED50 [4]: inactive
O=C(O)Cc1ccc2c(c1)/C(=C/CN1CCC(Cc3ccccc3)CC1)c1ccccc1CO2	0.74	0.02	Ki [5]: Not Active; ED50 [6]: 0.73 mg/kg; Ki [7]: Not Active; Ki [8]: Not Active; Ki [9]: Not Active; Ki [10]: Not Active; Ki [11]: Not Active; Ki [12]: Not Active; LD50 [13]: > 1000 mg/kg; Ki [14]: Not Active; Ki [15]: Not Active
O=C(O)c1ccc2c(c1)C(SCCN1CCc3ccccc3C1)c1ccccc1CO2 (centres undefined)	0.24	0.0069	–
O=C(O)Cc1ccc2c(c1)/C(=C\CN1CCC(Cc3ccccc3)CC1)c1ccccc1CO2	2.6	0.015	–
O=C(O)Cc1ccc2c(c1)C(SCCN1CCC(Cc3ccccc3)CC1)c1ccccc1CO2 (centres undefined)	0.43	0.01	–
O=C(O)c1ccc2c(c1)C(SCCNS(=O)(=O)c1ccccc1)c1ccccc1CO2 (centres undefined)	0.032	–	inhibition [3]: 0%
CN1CCC(=C2c3ccccc3CC(=O)c3sccc32)CC1 [KETOTIFEN]	–	–	ED50 [6]: 4.8 mg/kg
O=C(O)c1ccc2c(c1)C(SCCN1CCN(Cc3ccccc3)CC1)c1ccccc1CO2 (centres undefined)	0.49	0.014	–
O=C(O)c1ccc2c(c1)/C(=C/CN1CCN(c3ccc(F)cc3)CC1)c1ccccc1CO2	2.3	–	inhibition [3]: 3%
CC(C)(C(=O)O)c1ccc2c(c1)C(SCCN1CCC(Cc3ccccc3)CC1)c1ccccc1CO2 (centres undefined)	1.6	0.017	–
O=C(O)c1ccc2c(c1)C(SCCN1CCN(c3ccccc3)CC1)c1ccccc1CO2 (centres undefined)	0.21	0.047	–
O=C(O)c1ccc2c(c1)C(SCCN1CCN(c3ccc(F)cc3)CC1)c1ccccc1CO2 (centres undefined)	0.4	0.041	–
O=C(O)c1ccc2c(c1)C(SCCN1CCOCC1)c1ccccc1CO2 (centres undefined)	1.9	0.042	–
O=C(O)c1ccc2c(c1)C(SCCN1CCC(n3c(O)nc4ccccc43)CC1)c1ccccc1CO2 (centres undefined)	0.13	0.5	–
O=C(O)c1ccc2c(c1)C(SCCN1CCC(Cc3ccccc3)CC1)c1ccccc1CO2 (stereo in doubt; (-)12)	0.042	0.74	–
O=C(O)c1ccc2c(c1)/C(=C/Cn1cnc3ccccc31)c1ccccc1CO2	0.015	–	–
O=C(O)c1ccc2c(c1)C(SCCN1CCC(Cc3ccccc3)CC1)c1ccccc1CO2 (stereo in doubt; (+)12)	14	0.0099	–
O=C(O)CCc1ccc2c(c1)C(SCCN1CCC(Cc3ccccc3)CC1)c1ccccc1CO2 (centres undefined)	0.34	0.012	–
CN(C)CCSC1c2ccccc2COc2ccc(C(=O)O)cc21 (centres undefined)	–	0.009	ED50 [6]: 0.92 mg/kg; inhibition [16]: 18%
O=C(O)c1ccc2c(c1)C(SCCN1CCC(Cc3ccccc3)CC1)c1ccccc1CO2 (racemic)	0.14	0.018	–
CN(C)C/C=C1\c2ccccc2COc2ccc(CC(=O)O)cc21	> 1	–	ED50 [6]: 0.077 mg/kg
